Source: patent publication EP4782453A1 (Beyang Therapeutics Co., Ltd., priority 2023, dated 2025)
Like-named read-outs stand apart in the source and are kept apart here.

Key:
[1] = test system: MOLM-13 (carrying MLL-AF9); assay: Inhibition of proliferation of human tumor cells (Alamar Blue, 7 days), MOLM-13; format: cell-based; settings: Homo sapiens, MOLM-13 cells (carrying MLL-AF9), method calls the value GI50
Text: Experimental Example 2: Evaluation of Inhibitory Activity of Compounds Against Proliferation of Human Tumor Cells
• Human acute lymphoblastic leukemia cells MV-4-11, purchased from American Type Culture Collection, Catalog Number: CRL-9591; • Human acute myeloid leukemia cells MOLM-13, purchased from COBIOER BIOSCIENCES CO., LTD, Catalog Number: CBP60678; • Human acute myeloid leukemia cells KG-1a, purchased from American Type Culture Collection, Catalog Number: CCL-246.1; • Inverted Microscope, purchased from Olympus Tokyo; • Countess™ Automated Cell Counter, purchased from Invitrogen, Model: C10281; and • Multilabel Reader, purchased from Bio-Tek, Model: Synergy HT.
MV-4-11 cells were cultured in an IMDM medium containing 10% fetal bovine serum, KG-a cells were cultured in an IMDM medium containing 20% fetal bovine serum, or MOLM-13 cells were cultured in an RPMI-1640 medium containing 20% fetal bovine serum, each supplemented with 100 U·mL^-1 penicillin and 100 µg·mL^-1 streptomycin. These cells were cultured at 37°C with 5% CO2. The suspensions of individual cell lines were prepared in their respective media and seeded into 96-well plates at a density of 4,000 cells/well for MV-4-11 and MOLM-13 cells, or 3,000 cells/well for KG-1a cells. On the day of the experiment, a compound stock solution was diluted in a 3-fold or 4-fold gradient using DMSO. Each gradient-diluted stock solution was then further diluted 250-fold with a complete medium to prepare a series of working solutions at different concentrations. Subsequently, 100 µL of working solution (containing a 2-fold concentration series of the test compound) was added to each well, with duplicate wells set up for each concentration.
Seven days after compound addition (on Day 7), an Alamar Blue assay reagent (MCE, HY-111391 / CS-0040317) was added to measure the fluorescence intensity in each well. Wells containing the cells in the growth medium supplemented with 0.1% DMSO (Day 7) served as high-read control wells. The readouts from the wells containing the cells in the growth medium supplemented with 0.1% DMSO on the day of compound addition (Day 0) served as low-reading control well. GraphPad Prism software was used to calculate the concentration required to inhibit 50% of cell proliferation (GI50), which serves as a cell proliferation inhibition activity index.

Menin-MLL = biological target: T1, Menin-MLL (Homo sapiens, UniProt O00255); assay: Inhibitory activity against Menin-MLL binding (fluorescence polarization); settings: 150 nM His-Menin, 15 nM FITC-MLL, 25°C for 60 min
T1 construct: His-Menin (M1-L615 end); purchased BIORTUS BP9210
T1 sequence (O00255 1-615 isoform O00255-1): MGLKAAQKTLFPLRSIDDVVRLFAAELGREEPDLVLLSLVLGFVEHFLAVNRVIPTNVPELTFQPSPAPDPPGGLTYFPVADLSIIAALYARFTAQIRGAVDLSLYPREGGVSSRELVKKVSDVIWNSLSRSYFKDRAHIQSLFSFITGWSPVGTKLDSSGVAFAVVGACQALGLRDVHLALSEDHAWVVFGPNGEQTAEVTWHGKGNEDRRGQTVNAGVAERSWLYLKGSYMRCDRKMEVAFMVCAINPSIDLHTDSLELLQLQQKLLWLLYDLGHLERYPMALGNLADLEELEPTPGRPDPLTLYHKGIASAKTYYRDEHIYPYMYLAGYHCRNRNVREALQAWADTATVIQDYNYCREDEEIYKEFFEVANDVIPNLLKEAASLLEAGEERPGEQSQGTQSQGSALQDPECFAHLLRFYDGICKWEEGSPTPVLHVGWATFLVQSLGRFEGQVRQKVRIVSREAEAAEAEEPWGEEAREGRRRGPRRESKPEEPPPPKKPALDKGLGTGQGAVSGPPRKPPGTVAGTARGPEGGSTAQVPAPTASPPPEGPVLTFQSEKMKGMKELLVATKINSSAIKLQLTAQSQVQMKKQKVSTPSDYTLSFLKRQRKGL
Summary of the method: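 His-Menin (M1-L615, 150 nM) preincubated with compound 15 min at 25 °C in HEPES pH 7.5, 50 mM NaCl, 1 mM DTT, 0.01% BSA, then 15 nM FITC-MLL4-43 peptide added for 60 min at 25 °C. Fluorescence polarization read; IC50 from 4-parameter logistic fit, duplicates.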

[2] = Menin-MLL IC50, fluorescence polarization
[3] = fluorescence polarization, read-out: Menin-MLL IC50

Row | Structure (SMILES) | IC50 ([1]; MOLM-13, 168 h) [nM] | IC50 (Menin-MLL; [2]) [nM] | IC50 ([1]; 168 h) [nM] | IC50 (Menin-MLL; [3]) [nM]
1 | Cc1nc(F)c2c(-c3ccc(F)cc3C(=O)N3CCOC[C@H]3C)cc(C3CN([C@H](CCCN4CCN(CC(F)F)CC4)C(C)C)C3)cn12 [Example 362] | 2.8 | 4.6 | – | –
2 | CCN(C(=O)c1cc(F)ccc1-c1cc(C2CN([C@H](CCCN3CCC(S(C)(=O)=O)CC3)C(C)C)C2)cn2c(C)ncc12)C(C)C [Example 404] | – | – | 8.1 | 2.3
3 | CCN(C(=O)c1cc(F)ccc1-c1cc(C2CN([C@H](CCCN3CCN(CC(=O)N(C)C)CC3)C(C)C)C2)cn2c(C)ncc12)C(C)C [Example 473] | – | – | 16 | 1.1
4 | CCN(C(=O)c1cc(F)ccc1-c1cc(C2CN([C@H](CCCN3C4CCC3CN(C(C)=O)C4)C(C)C)C2)cn2c(C)ncc12)C(C)C [Example 378, 2-(6-{1-[(3R)-6-{3-acetyl-3,8-diazabicyclo[3.2.1]oct-8-yl}-2-methylhexan-3-yl]azacyclobutan-3-yl}-3-methylimidazo[1,5-a]pyridin-8-yl)-N-ethyl-5-fluoro-N-(isopropyl)benzamide] | – | – | 5.8 | 2.8
5 | CCN(C(=O)c1cc(F)ccc1-c1cc(C2CN([C@H](CCCN3CCO[C@@H](CO)C3)C(C)C)C2)cn2c(C)ncc12)C(C)C [Example 451] | – | – | 25 | 4.7
6 | CCN(C(=O)c1cc(F)ccc1-c1cc(C2CN([C@H](CCCN3CCN(C4(C(N)=O)COC4)CC3)C(C)C)C2)cn2c(C)ncc12)C(C)C [Example 475, 3-{4-[(4R)-4-[3-(8-{2-[ethyl(isopropyl)aminoformyl]-4-fluorophenyl}-3-methylimidazo[1,5-a]pyridin-6-yl)azacyclobutan-1-yl]-5-methylhexyl]piperazin-1-yl}oxacyclobutan-3-formamide] | – | – | 25 | 1
7 | CCN(C(=O)c1cc(F)ccc1-c1cc(C2CN(C(CCO)C(C)C)C2)cn2c(C)ncc12)C(C)C (stereo not drawn) [Example 455, N-ethyl-5-fluoro-2-{6-[1-(1-hydroxyl-4-methylpentan-3-yl)azacyclobutan-3-yl]-3-methylimidazo[1,5-a]pyridin-8-yl}-N-(isopropyl)benzamide] | – | – | 69 | 9.4
8 | CCN(C(=O)c1cc(F)ccc1-c1cc(C2CN([C@H](CN3CCN(CCO)CC3)C(C)C)C2)cc2c1cnn2C)C(C)C [Example 416-2, N-ethyl-5-fluoro-2-(6-{1-[(2S)-1-[4-(2-hydroxyethyl)piperazin-1-yl]-3-methylbutan-2-yl]azacyclobutan-3-yl}-1-methyl-1H-indazol-4-yl)-N-(isopropyl)benzamide] | – | – | 69 | 10.6
9 | CCN1CCN(CCC[C@H](C(C)C)N2CC(c3cc(-c4ccc(F)cc4C(=O)N4CCOC[C@H]4C)c4cnn(C)c4c3)C2)CC1 [Example 359] | – | – | 66 | 6
10 | CCN(C(=O)c1cc(F)ccc1-c1cc(C2CN([C@H](CCCN3CCC(NS(=O)(=O)CC)CC3)C(C)C)C2)cc2c1cnn2C)C(C)C [Example 411] | – | – | 12 | 2.7
11 | CCN(C(=O)c1cc(F)ccc1-c1cc(C2CN([C@H](CCCN3CCC(NC(C)=O)CC3)C(C)C)C2)cc2c1cnn2C)C(C)C [Example 405] | – | – | 7.2 | 1.6
12 | CCN(C(=O)c1cc(F)ccc1-c1cc(C2CN([C@H](CN3CCN(C(CO)CO)CC3)C(C)C)C2)cc2c1cnn2C)C(C)C [Example 419] | – | – | 85 | 8.1
13 | Cc1ncc2c(-c3ccc(F)cc3C(=O)N(C)C(C)C)cc(C3CN(C(CCCN4CCN(C)CC4)C(C)C)C3)cn12 (stereo not drawn) [Example 436, 5-fluoro-N-methyl-2-(3-methyl-6-{1-[2-methyl-6-(4-methylpiperazin-1-yl)hexan-3-yl]azacyclobutan-3-yl}imidazo[1,5-a]pyridin-8-yl)-N-(isopropyl)benzamide] | – | – | 42 | 8.3
14 | CCN(C(=O)c1cc(F)ccc1-c1cc(C2CN([C@H](CN3CCN(C[C@@H](O)CO)CC3)C(C)C)C2)cc2c1cnn2C)C(C)C [Example 434] | 32 | 8.8 | – | –
15 | CCN(C(=O)c1cc(F)ccc1-c1cc(C2CN([C@H](CCCN3CCN(C4(CO)COC4)CC3)C(C)C)C2)cn2c(C)ncc12)C(C)C [Example 474, N-ethyl-5-fluoro-2-(6-{1-[(3R)-6-{4-[3-(hydroxymethyl)oxacyclobutan-3-yl]piperazin-1-yl}-2-methylhexan-3-yl]azacyclobutan-3yl}-3-methylimidazo[1,5-a]pyridin-8-yl)-N-(isopropyl)benzamide] | 11 | 0.9 | – | –
16 | CCN(C(=O)c1cc(F)ccc1-c1cc(C2CN([C@H](CCCN3CCN[C@@H](COC)C3)C(C)C)C2)cn2c(C)ncc12)C(C)C [Example 502] | – | – | 9.8 | 0.9
17 | CCN(C(=O)c1cc(F)ccc1-c1cc(C2CN([C@H](CC[C@H]3COCCN3)C(C)C)C2)cn2c(C)ncc12)C(C)C [Example 457-2, N-ethyl-5-fluoro-2-(3-methyl-6-{1-[(3R)-4-methyl-1-[(3S)-morpholin-3-yl]pentan-3-yl]azacyclobutan-3-yl}imidazo[1,5-a]pyridin-8-yl)-N-(isopropyl)benzamide] | – | – | 5 | 2.6
18 | CC(=O)N1CC2(CN(CCC[C@H](C(C)C)N3CC(c4cc(-c5ccc(F)cc5C(=O)N5CCOC[C@H]5C)c5c(F)nc(C)n5c4)C3)C2)C1 [Example 370, 1-{6-[(4R)-4-[3-(1-fluoro-8-{4-fluoro-2-[(3R)-3-methylmorpholin-4-carbonyl]phenyl}-3-methylimidazo[1,5-a]pyridin-6-yl)azacyclobutan-1-yl]-5-methylhexyl]-2,6-diazaspiro[3.3]heptan-2-yl}ethan-1-one] | – | – | 4.2 | 3.8
19 | CCN(C(=O)c1cc(F)ccc1-c1cc(C2CN([C@H](CCCN3CCN(C(=O)C4(C#N)COC4)CC3)C(C)C)C2)cn2c(C)ncc12)C(C)C [Example 495] | – | – | 27 | 2.4
20 | Cc1nc(F)c2c(-c3ccc(F)cc3C(=O)N3CCOC[C@H]3C)cc(C3CN([C@H](CCCN4C5CC4CN(C)C5)C(C)C)C3)cn12 [Example 384] | – | – | 4.1 | 2.7
21 | CCN(C(=O)c1cc(F)ccc1-c1cc(C2CN([C@H](CCCN3CC4(C3)CN(C(C)=O)C4)C(C)C)C2)cc2c1cnn2C)C(C)C [Example 409] | – | – | 31 | 4
22 | CCN(C(=O)c1cc(F)ccc1-c1cc(C2CN([C@H](CCCN3CCN(CCF)CC3)C(C)C)C2)cc2c1cnn2C)C(C)C [Example 410] | – | – | 37 | 5.8
23 | CCN(C(=O)c1cc(F)ccc1-c1cc(C2CN([C@H](CN3CCN(C[C@H](O)CO)CC3)C(C)C)C2)cc2c1cnn2C)C(C)C [Example 440] | 56 | 8.9 | – | –
24 | CCN(C(=O)c1cc(F)ccc1-c1cc(C2CN([C@H](CCCN3CCN(C)[C@H](CO)C3)C(C)C)C2)cn2c(C)ncc12)C(C)C [Example 507] | – | – | 15 | 1
